Key:
BACE2 = BACE2 (Homo sapiens (Human), UniProt Q9Y5Z0); assay: In vitro enzymatic BACE2 FRET assay; assay type: biochemical; conditions: read-out: IC50 IP (μM) BACE2 Enzyme
Source text: (§1) In Vitro Enzymatic BACE1 and BACE2 FRET (Fluorescence Resonance Energy Transfer) Assays (Enzyme Assay Data in Table 1)

Cathepsin D (CatD) = Cathepsin D (CatD) (Homo sapiens (Human), UniProt P07339); assay: CatD assay; assay type: biochemical; conditions: read-out: IC50 IP (μM) CatD
Aβ 40 = assay: In vivo inhibition of beta-secretase: Aβ 40 reduction in rat CSF and brain; conditions: after 4 hrs, versus vehicle;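 also: male Sprague Dawley rats dosed orally in 2% HPMC, 1% Tween80 (pH 2.2) vehicle, Aβ40 quantified by sandwich ECL-based ELISA in CSF and brain supernatants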
Source text: Several animal models, including mouse, rat, dog, and monkey, may be used to screen for inhibition of beta-secretase activity in vivo following administration of a test compound sample. […] A separate group of animals receive 2% hydroxypropyl methylcellulose, 1% Tween80 alone, containing no test compound, and serve as a vehicle-control group. At the end of the test period, animals are sacrificed and brain tissues, plasma or cerebrospinal fluid are collected. […] Homogenates are centrifuged at 355,000 g, 4° C. for 30 minutes. CSF or brain supernatants are then analyzed for the presence of Aβ by specific sandwich ELISA assays based on ECL (Electrochemiluminescence) technology. For example, rat Abeta40 is measured using biotinylated-4G8 (Signet) as a capture antibody and Fab40 (an in-house antibody specific to the C-terminal of Abeta40) as a detection antibody. […] Actual vehicles used: Oral: 2% HPMC, 1% Tween80, pH 2.2

BACE1 [1] = biological target: T1, BACE1 (Homo sapiens (Human), UniProt P56817); assay: BACE1 cell assay; assay type: cell-based; conditions: read-out: IC50 IP (μM) BACE1 Cell
Target sequence in this assay (P56817 46-501, species assumed): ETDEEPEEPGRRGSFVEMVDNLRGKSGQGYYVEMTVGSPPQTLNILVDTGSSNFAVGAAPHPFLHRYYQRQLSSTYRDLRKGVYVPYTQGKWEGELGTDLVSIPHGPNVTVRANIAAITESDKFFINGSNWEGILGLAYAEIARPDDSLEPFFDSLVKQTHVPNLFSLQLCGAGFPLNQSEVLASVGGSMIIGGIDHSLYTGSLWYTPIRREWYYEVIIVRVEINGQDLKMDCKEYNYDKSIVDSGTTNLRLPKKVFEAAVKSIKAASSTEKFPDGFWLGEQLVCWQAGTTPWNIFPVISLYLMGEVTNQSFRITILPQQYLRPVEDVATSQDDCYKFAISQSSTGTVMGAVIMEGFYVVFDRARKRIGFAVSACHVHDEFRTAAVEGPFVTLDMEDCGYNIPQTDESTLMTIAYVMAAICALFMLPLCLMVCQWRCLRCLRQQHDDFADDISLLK

BACE1 [2] = biological target: T1, BACE1; assay: In vitro enzymatic BACE1 FRET assay; assay type: biochemical; conditions: read-out: IC50 IP (μM) BACE1 Enzyme
Target sequence in this assay (P56817 46-501): as the sequence (P56817 46-501, species assumed) above
Source text: as §1

Sequence of Cathepsin D (CatD) (P07339 65-412, species assumed): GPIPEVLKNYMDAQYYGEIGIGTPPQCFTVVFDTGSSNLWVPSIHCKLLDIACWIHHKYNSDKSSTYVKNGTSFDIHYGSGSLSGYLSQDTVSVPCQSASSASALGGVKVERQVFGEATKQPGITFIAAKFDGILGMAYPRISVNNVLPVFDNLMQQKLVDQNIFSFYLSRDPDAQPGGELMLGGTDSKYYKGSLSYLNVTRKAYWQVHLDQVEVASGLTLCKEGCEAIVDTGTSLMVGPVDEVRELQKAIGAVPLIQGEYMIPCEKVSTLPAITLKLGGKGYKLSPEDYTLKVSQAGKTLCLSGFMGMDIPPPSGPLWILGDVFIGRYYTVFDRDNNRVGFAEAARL
Sequence of BACE2 (Q9Y5Z0 63-518): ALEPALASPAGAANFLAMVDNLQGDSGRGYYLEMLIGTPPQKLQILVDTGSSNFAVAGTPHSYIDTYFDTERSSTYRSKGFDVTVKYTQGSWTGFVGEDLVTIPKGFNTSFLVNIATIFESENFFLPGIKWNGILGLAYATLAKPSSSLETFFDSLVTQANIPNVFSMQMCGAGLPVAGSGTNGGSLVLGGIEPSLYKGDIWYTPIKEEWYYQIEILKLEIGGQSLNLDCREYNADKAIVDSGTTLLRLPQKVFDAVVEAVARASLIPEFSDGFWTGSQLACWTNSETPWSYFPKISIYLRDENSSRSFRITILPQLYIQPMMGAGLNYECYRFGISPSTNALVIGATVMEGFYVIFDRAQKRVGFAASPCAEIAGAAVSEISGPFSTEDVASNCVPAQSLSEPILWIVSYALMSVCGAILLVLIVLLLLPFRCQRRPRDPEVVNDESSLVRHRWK

CN(C)C(=O)[C@]12C[C@H]1[C@@](C)(c1cc(/C=C(\F)c3ccc(Cl)cn3)ccc1F)N=C(N)S2 [Example 102, (1S,5S,6S)-3-amino-5-(5-((Z)-2-(5-chloropyridin-2-yl)-2-fluorovinyl)-2-fluorophenyl)-N,N,5-trimethyl-2-thia-4-azabicyclo[4.1.0]hept-3-ene-1-carboxamide]
IC50 (BACE2): 0.002 µM
IC50 (Cathepsin D (CatD)): 329 µM
% Aβ 40 reduction in rat CSF at 10 mpk (Aβ 40): 55%
% Aβ 40 reduction in rat brain at 10 mpk (Aβ 40): 20%

C[C@]1(c2cc(/C=C(\F)c3ccc(Cl)cn3)ccc2F)N=C(N)S[C@@]2(C(=O)N3CCCC3)C[C@H]21 [Example 103, ((1S,5S,6S)-3-amino-5-(5-((Z)-2-(5-chloropyridin-2-yl)-2-fluorovinyl)-2-fluorophenyl)-5-methyl-2-thia-4-azabicyclo[4.1.0]hept-3-en-1-yl)(pyrrolidin-1-yl)methanone]
IC50 (BACE2): 0.00597 µM
IC50 (BACE1 [1]): 0.00302 µM
IC50 (Cathepsin D (CatD)): 246 µM
IC50 (BACE1 [2]): 0.0012 µM
% Aβ 40 reduction in rat CSF at 10 mpk (Aβ 40): 62%
% Aβ 40 reduction in rat brain at 10 mpk (Aβ 40): 33%

CN(C)C(=O)[C@]12C[C@H]1[C@@](C)(c1cc(/C=C(\F)c3ccc(C#N)cn3)ccc1F)N=C(N)S2 [Example 106, (1S,5S,6S)-3-amino-5-(5-((Z)-2-(5-cyanopyridin-2-yl)-2-fluorovinyl)-2-fluorophenyl)-N,N,5-trimethyl-2-thia-4-azabicyclo[4.1.0]hept-3-ene-1-carboxamide]
IC50 (BACE2): 0.0143 µM
IC50 (Cathepsin D (CatD)): 148 µM
% Aβ 40 reduction in rat CSF at 10 mpk (Aβ 40): 78%
% Aβ 40 reduction in rat brain at 10 mpk (Aβ 40): 71%

C[C@]1(c2cc(/C=C(\F)c3ccc(C#N)cn3)ccc2F)N=C(N)S[C@@]2(C(=O)N3CCC(F)(F)C3)C[C@H]21 [Example 122, 6-((Z)-2-(3-((1S,5S,6S)-3-amino-1-(3,3-difluoropyrrolidine-1-carbonyl)-5-methyl-2-thia-4-azabicyclo[4.1.0]hept-3-en-5-yl)-4-fluorophenyl)-1-fluorovinyl)nicotinonitrile]
% Aβ 40 reduction in rat CSF at 10 mpk (Aβ 40): 67%
% Aβ 40 reduction in rat brain at 10 mpk (Aβ 40): 44%

C[C@]1(c2cc(/C=C(\F)c3ccc(C#N)cn3)ccc2F)N=C(N)S[C@@]2(C(=O)N3CCC3)C[C@H]21 [Example 123, 6-((Z)-2-(3-((1S,5S,6S)-3-amino-1-(azetidine-1-carbonyl)-5-methyl-2-thia-4-azabicyclo[4.1.0]hept-3-en-5-yl)-4-fluorophenyl)-1-fluorovinyl)nicotinonitrile]
IC50 (BACE2): 0.015 µM
IC50 (BACE1 [1]): 0.00161 µM
IC50 (Cathepsin D (CatD)): 376 µM
IC50 (BACE1 [2]): 0.00136 µM
% Aβ 40 reduction in rat CSF at 10 mpk (Aβ 40): 81%
% Aβ 40 reduction in rat brain at 10 mpk (Aβ 40): 73%

C[C@]1(c2cc(/C=C(\F)c3ccc(C#N)cn3)ccc2F)N=C(N)S[C@@]2(C(=O)N3CC[C@@H](F)C3)C[C@H]21 [Example 126, 6-((Z)-2-(3-((1S,5S,6S)-3-amino-1-((R)-3-fluoropyrrolidine-1-carbonyl)-5-methyl-2-thia-4-azabicyclo[4.1.0]hept-3-en-5-yl)-4-fluorophenyl)-1-fluorovinyl)nicotinonitrile]
IC50 (BACE2): 0.0299 µM
IC50 (Cathepsin D (CatD)): 390 µM
% Aβ 40 reduction in rat CSF at 10 mpk (Aβ 40): 73%
% Aβ 40 reduction in rat brain at 10 mpk (Aβ 40): 73%

C[C@]1(c2cc(/C=C(\F)c3ccc(C#N)cn3)ccc2F)N=C(N)S[C@@]2(C(=O)N3CC[C@H](F)C3)C[C@H]21 [Example 127, 6-((Z)-2-(3-((1S,5S,6S)-3-amino-1-((S)-3-fluoropyrrolidine-1-carbonyl)-5-methyl-2-thia-4-azabicyclo[4.1.0]hept-3-en-5-yl)-4-fluorophenyl)-1-fluorovinyl)nicotinonitrile]
IC50 (BACE2): 0.0519 µM
IC50 (Cathepsin D (CatD)): 131 µM
% Aβ 40 reduction in rat CSF at 10 mpk (Aβ 40): 73%
% Aβ 40 reduction in rat brain at 10 mpk (Aβ 40): 76%

C#CCOc1cnc(/C(F)=C/c2ccc(F)c([C@@]3(C)N=C(N)S[C@@]4(C(=O)NC)C[C@H]43)c2)cn1 [Example 151, (1S,5S,6S)-3-amino-5-(2-fluoro-5-((Z)-2-fluoro-2-(5-(prop-2-yn-1-yloxy)pyrazin-2-yl)vinyl)phenyl)-N,5-dimethyl-2-thia-4-azabicyclo[4.1.0]hept-3-ene-1-carboxamide]
IC50 (BACE2): 0.396 µM
IC50 (Cathepsin D (CatD)): 135 µM
% Aβ 40 reduction in rat CSF at 10 mpk (Aβ 40): 64%
% Aβ 40 reduction in rat brain at 10 mpk (Aβ 40): 45%

C#CCOc1cnc(/C(F)=C/c2ccc(F)c([C@@]3(C)N=C(N)S[C@@]4(C(=O)N5CCOCC5)C[C@H]43)c2)cn1 [Example 292, ((1S,5S,6S)-3-amino-5-(2-fluoro-5-((Z)-2-fluoro-2-(5-(prop-2-yn-1-yloxy)pyrazin-2-yl)vinyl)phenyl)-5-methyl-2-thia-4-azabicyclo[4.1.0]hept-3-en-1-yl)(morpholino)methanone]
IC50 (BACE1 [1]): 0.0007 µM
% Aβ 40 reduction in rat CSF at 10 mpk (Aβ 40): 70%
% Aβ 40 reduction in rat brain at 10 mpk (Aβ 40): 75%

C[C@]1(c2cc(/C=C(\F)c3ccc(C#N)cn3)ccc2F)N=C(N)S[C@@]2(C(=O)N3CCO[C@@H]4C[C@@H]43)C[C@H]21 [Example 312, 6-((Z)-2-(3-((1S,5S,6S)-3-amino-1-((1R,6S)-2-oxa-5-azabicyclo[4.1.0]heptane-5-carbonyl)-5-methyl-2-thia-4-azabicyclo[4.1.0]hept-3-en-5-yl)-4-fluorophenyl)-1-fluorovinyl)nicotinonitrile]
% Aβ 40 reduction in rat CSF at 10 mpk (Aβ 40): 66%
% Aβ 40 reduction in rat brain at 10 mpk (Aβ 40): 56%

CNC(=O)[C@]12C[C@H]1[C@@](C)(c1cc(/C=C(\F)c3ccc(Br)cn3)ccc1F)N=C(N)S2 [Example 355, (1S,5S,6S)-3-amino-5-(5-((Z)-2-(5-bromopyridin-2-yl)-2-fluorovinyl)-2-fluorophenyl)-N,5-dimethyl-2-thia-4-azabicyclo[4.1.0]hept-3-ene-1-carboxamide]
IC50 (BACE2): 0.069 µM
IC50 (BACE1 [1]): 0.023 µM
IC50 (Cathepsin D (CatD)): 141 µM
IC50 (BACE1 [2]): 0.01 µM

CNC(=O)[C@]12C[C@H]1[C@@](C)(c1cc(/C=C(/F)c3ccc(Br)cn3)ccc1F)N=C(N)S2 [Example 356, (1S,5S,6S)-3-amino-5-(5-((E)-2-(5-bromopyridin-2-yl)-2-fluorovinyl)-2-fluorophenyl)-N,5-dimethyl-2-thia-4-azabicyclo[4.1.0]hept-3-ene-1-carboxamide]
IC50 (BACE2): 0.137 µM
IC50 (BACE1 [1]): 0.154 µM
IC50 (Cathepsin D (CatD)): 64 µM
IC50 (BACE1 [2]): 0.023 µM

C[C@]1(c2cc(/C=C(\F)c3ccc(C#CC4CC4)cn3)ccc2F)N=C(N)S[C@@]2(C(=O)N3CCOCC3)C[C@H]21 [Example 357, ((1S,5S,6S)-3-amino-5-(5-((Z)-2-(5-(cyclopropylethynyl)pyridin-2-yl)-2-fluorovinyl)-2-fluorophenyl)-5-methyl-2-thia-4-azabicyclo[4.1.0]hept-3-en-1-yl)(morpholino)methanone]
IC50 (BACE2): 0.43 µM
IC50 (BACE1 [1]): 0.155 µM
IC50 (Cathepsin D (CatD)): 29.1 µM
IC50 (BACE1 [2]): 0.015 µM

CNC(=O)[C@]12C[C@H]1[C@@](C)(c1cc(/C=C(\F)c3ccc(C#CC4CC4)cn3)ccc1F)N=C(N)S2 [Example 358, (1S,5S,6S)-3-amino-5-(5-((Z)-2-(5-(cyclopropylethynyl)pyridin-2-yl)-2-fluorovinyl)-2-fluorophenyl)-N,5-dimethyl-2-thia-4-azabicyclo[4.1.0]hept-3-ene-1-carboxamide]
IC50 (BACE2): 0.415 µM
IC50 (BACE1 [1]): 0.256 µM
IC50 (Cathepsin D (CatD)): 39.8 µM
IC50 (BACE1 [2]): 0.018 µM

CNC(=O)[C@]12C[C@H]1[C@@](C)(c1cc(/C=C(\F)c3ccc(C#CC4(C)COC4)cn3)ccc1F)N=C(N)S2 [Example 360, (1S,5S,6S)-3-amino-5-(2-fluoro-5-((Z)-2-fluoro-2-(5-((3-methyloxetan-3-yl)ethynyl)pyridin-2-yl)vinyl)phenyl)-N,5-dimethyl-2-thia-4-azabicyclo[4.1.0]hept-3-ene-1-carboxamide]
IC50 (BACE2): 0.756 µM
IC50 (BACE1 [1]): 0.636 µM
IC50 (Cathepsin D (CatD)): 72.5 µM
IC50 (BACE1 [2]): 0.15 µM

CCCC#Cc1ccc(/C(F)=C/c2ccc(F)c([C@@]3(C)N=C(N)S[C@@]4(C(=O)NC)C[C@H]43)c2)nc1 [Example 361, (1S,5S,6S)-3-amino-5-(2-fluoro-5-((Z)-2-fluoro-2-(5-(pent-1-yn-1-yl)pyridin-2-yl)vinyl)phenyl)-N,5-dimethyl-2-thia-4-azabicyclo[4.1.0]hept-3-ene-1-carboxamide]
IC50 (BACE2): 0.49 µM
IC50 (BACE1 [1]): 1.41 µM
IC50 (Cathepsin D (CatD)): 34 µM
IC50 (BACE1 [2]): 0.058 µM

CNC(=O)[C@]12C[C@H]1[C@@](C)(c1cc(/C=C(\F)c3cnc(C#CCO)cn3)ccc1F)N=C(N)S2 [Example 362, (1S,5S,6S)-3-amino-5-(2-fluoro-5-((Z)-2-fluoro-2-(5-(3-hydroxyprop-1-yn-1-yl)pyrazin-2-yl)vinyl)phenyl)-N,5-dimethyl-2-thia-4-azabicyclo[4.1.0]hept-3-ene-1-carboxamide]
IC50 (BACE2): 0.365 µM
IC50 (BACE1 [1]): 0.104 µM
IC50 (Cathepsin D (CatD)): 349 µM
IC50 (BACE1 [2]): 0.004 µM

CNC(=O)[C@]12C[C@H]1[C@@](C)(c1cc(/C=C(\F)c3cnc(C#CCF)cn3)ccc1F)N=C(N)S2 [Example 363, (1S,5S,6S)-3-amino-5-(2-fluoro-5-((Z)-2-fluoro-2-(5-(3-fluoroprop-1-yn-1-yl)pyrazin-2-yl)vinyl)phenyl)-N,5-dimethyl-2-thia-4-azabicyclo[4.1.0]hept-3-ene-1-carboxamide]
IC50 (BACE2): 0.152 µM
IC50 (BACE1 [1]): 1.34 µM
IC50 (Cathepsin D (CatD)): > 400 µM
IC50 (BACE1 [2]): 0.01 µM

CNC(=O)[C@]12C[C@H]1[C@@](C)(c1cc(/C=C(\F)c3ccc(OC(F)(F)F)cn3)ccc1F)N=C(N)S2 [Example 364, (1S,5S,6S)-3-amino-5-(2-fluoro-5-((Z)-2-fluoro-2-(5-(trifluoromethoxy)pyridin-2-yl)vinyl)phenyl)-N,5-dimethyl-2-thia-4-azabicyclo[4.1.0]hept-3-ene-1-carboxamide]
IC50 (BACE2): 0.285 µM
IC50 (BACE1 [1]): 0.025 µM
IC50 (Cathepsin D (CatD)): 256 µM
IC50 (BACE1 [2]): 0.008 µM
